Data reported in the NIST ThermoML archive (doi:10.1021/acs.jced.9b00248).

Test: mn = molality of the nth substance listed, in mol/kg
Conditions: Liquid; for viscosity: Vibrating wire viscometry; for mass density: Vibrating tube method

[Ca+2].[Cl-].[Cl-] [calcium chloride] + O
Conditions	mass density [kg/m3]	viscosity [mPa·s]
274.75 K, 1300 kPa, m1 = 1	–	2.142
274.75 K, 49900 kPa, m1 = 1	–	2.117
274.75 K, 99700 kPa, m1 = 1	–	2.096
274.87 K, 1270 kPa, m1 = 1	1088.12	–
274.87 K, 15180 kPa, m1 = 1	1094.18	–
274.87 K, 30070 kPa, m1 = 1	1100.27	–
274.87 K, 49880 kPa, m1 = 1	1108.27	–
274.87 K, 69750 kPa, m1 = 1	1115.89	–
274.87 K, 99730 kPa, m1 = 1	1126.88	–
274.98 K, 1310 kPa, m1 = 2.5	1201.94	–
274.98 K, 15210 kPa, m1 = 2.5	1207.74	–
274.98 K, 30100 kPa, m1 = 2.5	1212.77	–
274.98 K, 49930 kPa, m1 = 2.5	1219.37	–
274.98 K, 69770 kPa, m1 = 2.5	1225.9	–
274.98 K, 99750 kPa, m1 = 2.5	1235.53	–
296.18 K, 1280 kPa, m1 = 1	1082.39	–
296.18 K, 15170 kPa, m1 = 1	1087.93	–
296.18 K, 30070 kPa, m1 = 1	1093.68	–
296.18 K, 49900 kPa, m1 = 1	1101.19	–
296.18 K, 69750 kPa, m1 = 1	1108.4	–
296.18 K, 99730 kPa, m1 = 1	1118.84	–
296.21 K, 30100 kPa, m1 = 1	–	1.224
296.21 K, 99700 kPa, m1 = 1	–	1.237
296.22 K, 1310 kPa, m1 = 2.5	1192.77	–
296.22 K, 15240 kPa, m1 = 2.5	1197.73	–
296.22 K, 30130 kPa, m1 = 2.5	1202.82	–
296.22 K, 49960 kPa, m1 = 2.5	1209.46	–
296.22 K, 69780 kPa, m1 = 2.5	1215.91	–
296.22 K, 99740 kPa, m1 = 2.5	1225.32	–
323.23 K, 1280 kPa, m1 = 2.5	1179.3	–
323.23 K, 15180 kPa, m1 = 2.5	1184.63	–
323.23 K, 30060 kPa, m1 = 2.5	1189.89	–
323.23 K, 49910 kPa, m1 = 2.5	1196.52	–
323.23 K, 69770 kPa, m1 = 2.5	1202.94	–
323.23 K, 99730 kPa, m1 = 2.5	1212.15	–
323.31 K, 1240 kPa, m1 = 1	1071.6	–
323.31 K, 15190 kPa, m1 = 1	1077.19	–
323.31 K, 30070 kPa, m1 = 1	1082.81	–
323.31 K, 49880 kPa, m1 = 1	1090.06	–
323.31 K, 69760 kPa, m1 = 1	1097.04	–
323.31 K, 99750 kPa, m1 = 1	1107.2	–
323.4 K, 1300 kPa, m1 = 1	–	0.736
323.4 K, 15200 kPa, m1 = 1	–	0.734
323.4 K, 30100 kPa, m1 = 1	–	0.732
323.4 K, 49900 kPa, m1 = 1	–	0.728
323.4 K, 69800 kPa, m1 = 1	–	0.725
348.19 K, 1320 kPa, m1 = 2.5	1165.84	–
348.19 K, 15220 kPa, m1 = 2.5	1170.56	–
348.19 K, 30110 kPa, m1 = 2.5	1175.97	–
348.19 K, 49950 kPa, m1 = 2.5	1182.84	–
348.19 K, 69790 kPa, m1 = 2.5	1189.55	–
348.19 K, 99790 kPa, m1 = 2.5	1199.01	–
348.2 K, 1300 kPa, m1 = 1	1058.82	–
348.2 K, 15220 kPa, m1 = 1	1064.57	–
348.2 K, 30100 kPa, m1 = 1	1070.33	–
348.2 K, 49930 kPa, m1 = 1	1077.65	–
348.2 K, 69790 kPa, m1 = 1	1084.72	–
348.2 K, 99770 kPa, m1 = 1	1094.89	–
373.2 K, 1350 kPa, m1 = 2.5	1151.73	–
373.2 K, 15250 kPa, m1 = 2.5	1156.76	–
373.2 K, 30140 kPa, m1 = 2.5	1161.97	–
373.2 K, 49960 kPa, m1 = 2.5	1168.74	–
373.2 K, 69820 kPa, m1 = 2.5	1175.25	–
373.2 K, 99780 kPa, m1 = 2.5	1184.69	–
373.22 K, 1320 kPa, m1 = 1	1042.78	–
373.22 K, 15230 kPa, m1 = 1	1048.82	–
373.22 K, 30130 kPa, m1 = 1	1054.88	–
373.22 K, 49940 kPa, m1 = 1	1062.61	–
373.22 K, 69790 kPa, m1 = 1	1070	–
373.22 K, 99790 kPa, m1 = 1	1080.38	–
373.45 K, 30100 kPa, m1 = 1	–	0.393
373.45 K, 49900 kPa, m1 = 1	–	0.399
398.26 K, 1360 kPa, m1 = 2.5	1134.93	–
398.26 K, 15270 kPa, m1 = 2.5	1140.45	–
398.26 K, 30160 kPa, m1 = 2.5	1146.01	–
398.26 K, 49970 kPa, m1 = 2.5	1153.12	–
398.26 K, 69820 kPa, m1 = 2.5	1159.89	–
398.26 K, 99800 kPa, m1 = 2.5	1169.63	–
398.28 K, 1320 kPa, m1 = 1	1024.8	–
398.28 K, 15230 kPa, m1 = 1	1031.2	–
398.28 K, 30120 kPa, m1 = 1	1037.76	–
398.28 K, 49940 kPa, m1 = 1	1045.99	–
398.28 K, 69780 kPa, m1 = 1	1053.7	–
398.28 K, 99790 kPa, m1 = 1	1064.71	–
398.33 K, 15200 kPa, m1 = 1	–	0.31
398.33 K, 30100 kPa, m1 = 1	–	0.315
398.33 K, 49900 kPa, m1 = 1	–	0.321
423.46 K, 1400 kPa, m1 = 1	–	0.255
423.46 K, 50000 kPa, m1 = 1	–	0.266
423.46 K, 69800 kPa, m1 = 1	–	0.272
423.6 K, 1340 kPa, m1 = 1	1004.42	–
423.6 K, 1360 kPa, m1 = 2.5	1116.33	–
423.6 K, 15250 kPa, m1 = 1	1011.3	–
423.6 K, 15260 kPa, m1 = 2.5	1122.22	–
423.6 K, 30150 kPa, m1 = 1	1018.56	–
423.6 K, 30150 kPa, m1 = 2.5	1128.37	–
423.6 K, 49950 kPa, m1 = 1	1027.46	–
423.6 K, 49980 kPa, m1 = 2.5	1136	–
423.6 K, 69810 kPa, m1 = 2.5	1143.19	–
423.6 K, 69820 kPa, m1 = 1	1035.71	–
423.6 K, 99790 kPa, m1 = 2.5	1153.51	–
423.6 K, 99810 kPa, m1 = 1	1047.43	–
448.43 K, 1400 kPa, m1 = 1	–	0.226
448.43 K, 69800 kPa, m1 = 1	–	0.235
448.83 K, 1360 kPa, m1 = 2.5	1096.34	–
448.83 K, 15250 kPa, m1 = 2.5	1102.89	–
448.83 K, 30150 kPa, m1 = 2.5	1109.65	–
448.83 K, 49970 kPa, m1 = 2.5	1117.84	–
448.83 K, 69820 kPa, m1 = 2.5	1125.62	–
448.83 K, 99830 kPa, m1 = 2.5	1136.51	–
448.84 K, 1360 kPa, m1 = 1	982.19	–
448.84 K, 15270 kPa, m1 = 1	989.78	–
448.84 K, 30160 kPa, m1 = 1	997.78	–
448.84 K, 49980 kPa, m1 = 1	1007.39	–
448.84 K, 69830 kPa, m1 = 1	1016.54	–
448.84 K, 99810 kPa, m1 = 1	1029.19	–
